Reference: publication PMC11413853, “Discovery of VU6007496: Challenges in the Development of an M1 Positive Allosteric Modulator Backup Candidate” (ACS Chemical Neuroscience, 2024)
“Also recorded” adds a separate entry of the source.

Legend:
[1] = tested on: mice; assay: Mouse phenotypic seizure liability assay (modified Racine score); assay type: in vivo; settings: 100 mg/kg i.p.; for seizure liability / behavioral convulsions (modified Racine score): male C57Bl/6 mice, 3 h
Experimental: Brain plasma concentration ratio (Kp) was calculated by dividing brain concentration by plasma concentration for each animal. Unbound brain to unbound plasma concentration ratio (Kp,uu) is calculated using the following formula: Kp,uu = (Brain ng/g x brain fu)/(plasma ng/ml x plasma fu). […]
Behavioral Manifestations of Seizure Activity
To evaluate induction of behavioral manifestation of seizure activity, C57Bl/6 mice received administration of vehicle or 100 mg/kg M1 PAM. Compounds were formulated in 30% Captisol (11) or 10% Tween 80 (2-4 and 12) (pH 7.0) at a concentration of 10 mg/mL and injected i.p. (n = 3). Animals were monitored continuously and scored for behavioral manifestations of seizure activity at 5, 10, 15, and 30 min, and 1 and 3 h. Behavioral manifestations of seizures were scored using a modified Racine scoring system.2 Briefly, a score of 0 represents no behavior alterations; score 1, immobility, mouth and facial movements, or facial clonus; score 2, head nodding, tail extension; score 3, forelimb clonus, repetitive movements; score 4, rearing and tonic clonic seizure; and score 5, continuous rearing and falling, severe generalized tonic clonic seizure.

[2] = Predicted hepatic clearance, dog; assay type: in vitro ADME
Experimental: The diluted fraction unbound (fu2) in brain was calculated in the same manner by using brain homogenate rather than plasma. Undiluted fraction unbound for the brain was calculated using […]
Equation 5 Determination of fraction unbound in brain. Fu2 represents the diluted fraction […]
Intrinsic clearance: Human or rat hepatic microsomes (0.5 mg/mL) and 1 µM test compound were incubated in 100 mM potassium phosphate pH 7.4 buffer with 3 mM MgCl2 at 37 °C with constant shaking. After a 5 min preincubation, the reaction was initiated by the addition of NADPH (1 mM). At selected time intervals (0, 3, 7, 15, 25, and 45 min), aliquots were taken and subsequently placed into a 96-well plate containing cold acetonitrile with internal standard (50 ng/mL carbamazepine). Plates were then centrifuged at 3000 rcf (4 °C) for 10 min, and the supernatant was transferred to a separate 96-well plate and diluted 1:1 with water for LC/MS/MS analysis. The in vitro half-life ( 1/2, min, Eq. 1), intrinsic clearance (CLint, mL/min/kg, Eq. 2), and subsequent predicted hepatic clearance (CLhep, mL/min/kg, Eq. 3) was determined employing the […]
Samples were analyzed on a Thermo Electron TSQ Quantum Ultra triple quad mass spectrometer (San Jose, CA) via electrospray ionization (ESI) with two Themo Electron Accella pumps (San Jose, CA), and a Leap Technologies CTC PAL autosampler (Carrboro, NC). […]

[3] = tested on: 4-strain Ames; assay: 4-strain Ames assay; settings: with and without S9
[4] = In vivo rat MET ID (plasma)
Experimental: The team was still puzzled by the severe cholinergic adverse events observed in rats at the 100 and 300 mg/kg arms of the dose escalation study, as this was not consistent with the past 20 years of M1 PAM research. Could the N-demethylated metabolite A (24) be responsible? Due to the disconnect between liver S9 and hepatocytes, we felt it was prudent to examine in vivo rat MET ID at doses of 100 and 300 mg/kg to ensure 24 is produced upon in vivo oral dosing after 5–30 min and 160–240 min, and to determine if any other putative metabolites are generated at detectable levels (Figure 10). Across both doses and time points, 73–81% of the parent 11 remained. Metabolite 24 was produced in vivo at 2.2 to 5.6% relative abundance and lower than from in vitro incubations, along with two oxidative metabolites, a dioxygenated species M461 (26) and a mono-oxygenated species M445 (27) on the tetrahydropyranyl moiety. […] A species such as 27 would resemble the hydroxy pyranyl congeners known to be potent ago-PAMs and prone to severe cholinergic side effects, and the potential for 24 to elicit similar cholinergic toxicity was unknown.

| Structure (SMILES) | seizure liability / behavioral convulsions (modified Racine score) [1] | total brain exposure ([1]; mouse) [µM] | Predicted CLhep, dog [2] [mL/min/kg] | Ames result [3] | Relative Abundance (%) ([4]; 11 dosed 100mg, 5-30 min) | Relative Abundance (%) ([4]; 11 dosed 100mg, 60-240 min) | Relative Abundance (%) ([4]; 11 dosed 300mg, 5-30 min) | Relative Abundance (%) ([4]; 11 dosed 300mg, 160-240 min) |
| --- | --- | --- | --- | --- | --- | --- | --- | --- |
| Cn1ccc(-c2ccc(Cc3cc(C(=O)NC4CCOCC4)nc4ccn(C)c34)cc2)n1 [compound 11] | did not induce seizure liability; also recorded: did not cause any observed adverse effects | 1.04 | 14 | negative | 81.0 | 74.0 | 79.4 | 73.1 |
| Cn1ccc(-c2ccc(Cc3cc(C(=O)NC4CCOCC4)nc4ccsc34)cc2)n1 [compound 12] | did not induce seizure liability; also recorded: did not cause any observed adverse effects |  | 16 | negative |  |  |  |  |
| Cn1ccc2nc(C(=O)NC3CCOCC3)cc(Cc3ccc(-c4cc[nH]n4)cc3)c21 [compound 24] |  |  |  |  | 2.2 | 5.6 | 1.7 | 3.2 |
